Data set [1] deals with L1210 leukemia. The data set can be described thus: combination chemotherapy against L1210 leukemia in mice (10^6 L1210 cells ip, schedule A). The class given is in vivo. As to conditions: Yoshi-864 and cyclophosphamide 75 mg/kg each; for 60-Day Survivors: out of 10, dichloro complex 2.5 mg/kg; for % ILS: dichloro complex 2.5 mg/kg. An excerpt: The significance of this test system in evaluating potential antineoplastic agents and the test protocol therefor, are described in detail by Geran et al, "Protocols for Screening Chemical Agents and Natural Products Against Animal Tumors and Other Biological Systems" (Third Edition), Cancer Chemotherapy Reports, Part 3, Volume 3, No. 2, Pages 1-103, September 1972. Briefly, the test procedure involves implanting L1210 leukemia cells into mice by intraperitoneal (i.p.) injection, beginning i.p. treatment with the test drug 24 hours after implant, and determining the antineoplastic activity of the test drug at optimum dose levels and schedules of administration as the percent increase in life span (%ILS) of the treated mice over the untreated control mice.
In this set of tests, the mice received by ip injection 10^6 L1210 leukemia cells, which produces a somewhat more advanced stage of the disease after 24 hours than is obtained upon using 10^5 cells as described in the previous set of tests. The mice were then divided into groups of ten, including a control group, and all mice within the same group were given the same treatment. Treatment was administered ip employing the A schedule of administration. […] The treatments tested were each of the three treating agents by themselves and the dichloro complex in combination with each of the other two treating agents. The resulting %ILS values and the number of mice (out of the group of 10) which survived sixty days following implant, are set forth in Table III.

The test system of data set [2] is L1210 leukemia. The description is as above. In kind it is in vivo. The note with it: Yoshi-864 and cyclophosphamide 75 mg/kg each; for 60-day Survivors: out of 10, sulfato complex 4 mg/kg.
The test system of data set [3] is L1210 leukemia. The data set can be described thus: antineoplastic activity against L1210 leukemia in mice, individual treatment (10^5 L1210 cells ip). In kind it is in vivo. The note with it: for % ILS: 10^5 cells; for Dose/Injection range found safe and effective for providing %ILS of at least 25%, Schedule B: ip injections on days 1, 5 and 9 after implant; for Dose/Injection range found safe and effective for providing %ILS of at least 25%, Schedule C: ip injections on each of days 1-9 after implant; for Dose/Injection range found safe and effective for providing %ILS of at least 25%, Schedule A: single ip injection on day 1 after implant.
Procedure: Schedule A consisted of a single injection administered ip on the first day following implant of the L1210 leukemia cells. (i.e., 24 hours after implant). Schedule B consisted of a three-injection regimen, with one injection being administered ip on each of the first, fifth and ninth days following implant. Schedule C consisted of a nine-injection regimen, with one injection being administered ip on each of the first through ninth days following implant.
In this set of tests, the mice received 10^5 L1210 leukemia cells by ip injection, and were divided into groups of 10, including a control group.

The subject of data set [4] is L1210 leukemia. The note with it: Gale et al 1974; cited from earlier work.
In a further data set the test system is Sarcoma 180. As to conditions: Cleare et al 1973; cited from earlier work.
Data set [5] concerns ADJ/PC6A plasma cell tumor. As to conditions: in comparison with cis-dichlorodiammineplatinum (II); Connors et al 1972; cited from earlier work.
Data set [6] has as its system L1210 leukemia. The data set can be described thus: antineoplastic activity of hydroxonitrato complex against L1210 leukemia in mice (10^6 L1210 cells ip). In kind it is in vivo. As to conditions: Schedule A. As for the experimental part:
The mice received by ip injection 10^6 L1210 leukemia cells, which produces a somewhat more advance stage of the disease after 24 hours than is obtained upon using 10^5 cells as described previously. The mice were then divided into groups of six, including a control group. […] The highest %ILS value obtained was 144 at a dose level of 10 mg/kg.

The next data set deals with cancer. As to conditions: in vivo; cited from earlier work.
[7] abbreviates: hydroxymalonato complex 30 mg/kg.
Setting [8] is: out of 10, dinitrato complex 3 mg/kg.
Setting [9] is: out of 10, hydroxymalonato complex 30 mg/kg.
Where [10] appears, read: out of 10, malonato complex 15 mg/kg.
The mark [11] stands for this setting: highest %ILS regardless of schedule or dose level.

Where a name gives a salt, the structure may show the parent alone.

For the compound `O=P1(N(CCCl)CCCl)NCCCO1` (centres unmarked) [Cyclophosphamide, cyclophosphamide], the “60-Day Survivors” value with L1210 leukemia [1], with L1210 leukemia [2] (setting [8]), in the data set with L1210 leukemia [2] (setting [9]) and in the data set on L1210 leukemia [2] (setting [10]) was 0 mice in each case. In addition, the “% ILS” value in the data set on L1210 leukemia [2] (dichloro complex 2.5 mg/kg) is 79%; in the data set on L1210 leukemia [2] (dinitrato complex 3 mg/kg) it was 105%; in the data set on L1210 leukemia [2] (setting [7]), 107%; with L1210 leukemia [2] (malonato complex 15 mg/kg), 118%; with L1210 leukemia [2] (sulfato complex 4 mg/kg), 97%. Besides, in the data set with L1210 leukemia [2], the “60-day Survivors” value stood at 0 mice.
With `NC1CCCCC1N.[Cl][Pt][Cl]` (centres unmarked) [Dichloro complex, dichloro (1,2-diaminocyclohexane) platinum (II)], the “% ILS” value with L1210 leukemia [3] (Schedule A, 6.25 mg/kg/injection ip) was 114%. In addition, the “% ILS” value with L1210 leukemia [3] (Schedule B, 8.0 mg/kg/injection ip) was 113%. Moreover, the “% ILS” value in the data set with L1210 leukemia [3] (Schedule C, 2.0 mg/kg/injection ip) was found to be 153%. Moreover, in the data set with L1210 leukemia [1], the “% ILS” value amounted to 73% and the “60-Day Survivors” value amounted to 0 mice. Also, in the data set on L1210 leukemia [4], the “combination with cyclophosphamide (in words)” value was “combined synergistically”, the “effectiveness against L1210 leukemia (in words)” value is recorded as “highly effective” and the “increase in mean survival time in comparison with cis-dichlorodiammineplatinum (II)” value is listed as “up to 54%”. Further, in the data set with Sarcoma 180, the “antitumor activity against Sarcoma 180 (in words)” value is “only marginal antitumor activity”. In [5], the “ID50 (in words)” value is on record as “quite similar to those of cis-dichlorodiammineplatinum (II)” and the “LD50 (in words)” value was “quite similar to those of cis-dichlorodiammineplatinum (II)”.
Take `NC1CCCCC1N.O=[N+]([O-])[O-].O=[N+]([O-])[O-].[Pt+2]` (centres unmarked) [Dinitrato complex, dinitrato (1,2-diaminocyclohexane) platinum (II)]: the “% ILS” value in the data set with L1210 leukemia [3] (Schedule A, 4.0 mg/kg/injection ip) is listed as 113%; in the data set on L1210 leukemia [3] (Schedule B, 4.0 mg/kg/injection ip), 247%; in the data set with L1210 leukemia [3] (Schedule C, 0.5 mg/kg/injection ip) it was 281%; with L1210 leukemia [2] (dinitrato complex 3 mg/kg), 110%. Moreover, in the data set on L1210 leukemia [3] (setting [11]), the “level of antineoplastic activity greater than that achieved with the dichloro complex” value (from here on “level … with the dichloro complex”) is reported as 83%. Besides, the “Dose/Injection range found safe and effective for providing %ILS of at least 25%, Schedule B” value in the data set on L1210 leukemia [3] was in the range of 0.25 to 4 mg/kg. Further, the “Dose/Injection range found safe and effective for providing %ILS of at least 25%, Schedule C” value in the data set on L1210 leukemia [3] was in the range of 0.05 to 2 mg/kg. In addition, the “Dose/Injection range found safe and effective for providing %ILS of at least 25%, Schedule A” value with L1210 leukemia [3] lay within 0.5 to 8 mg/kg. Besides, the “60-Day Survivors” value in the data set with L1210 leukemia [2] (setting [8]) was found to be 0 mice.
Regarding `NC1CCCCC1N.O=[N+]([O-])[O-].[OH-].[Pt+2]` (centres unmarked) [Hydroxonitrato complex, hydroxonitrato (1,2-diaminocyclohexane) platinum (II)], in the data set on L1210 leukemia [3], the “Dose/Injection range found safe and effective for providing %ILS of at least 25%, Schedule B” value was in the range of 1 to 5 mg/kg; the “Dose/Injection range found safe and effective for providing %ILS of at least 25%, Schedule C” value lay in the range of 0.3 to 1.25 mg/kg; the “Dose/Injection range found safe and effective for providing %ILS of at least 25%, Schedule A” value was 2.5 to 15 mg/kg. In addition, the “% ILS” value with L1210 leukemia [6] (10 mg/kg ip, 10^6 cells) stood at 144%. In addition, in the data set with L1210 leukemia [6] (10^6 cells vs dichloro complex at 10^5 cells), the “greater %ILS value than dichloro complex” value is given as 26%.
For `NC1CCCCC1N.O=C([O-])CC(=O)[O-].[Pt+2]` (centres unmarked) [Malonato complex, malonato (1,2-diaminocyclohexane) platinum (II)], the “% ILS” value in the data set on L1210 leukemia [3] (Schedule A, 2.5 mg/kg/injection ip) turned out to be 258%; with L1210 leukemia [3] (Schedule A, 40.0 mg/kg/injection ip), 271%; with L1210 leukemia [3] (Schedule B, 40.0 mg/kg/injection ip), 157%; with L1210 leukemia [3] (Schedule C, 10.0 mg/kg/injection ip) it was 219%; in the data set with L1210 leukemia [2] (malonato complex 15 mg/kg), 80%. The “level … with the dichloro complex” value in the data set on L1210 leukemia [3] (setting [11]) is listed as 77%. Besides, in the data set with L1210 leukemia [3], the “Dose/Injection range found safe and effective for providing %ILS of at least 25%, Schedule B” value is 10 to 40 mg/kg. The “Dose/Injection range found safe and effective for providing %ILS of at least 25%, Schedule C” value in the data set with L1210 leukemia [3] is 5 to 20 mg/kg. The “Dose/Injection range found safe and effective for providing %ILS of at least 25%, Schedule A” value with L1210 leukemia [3] lay in the range of 2.5 to 160 mg/kg. Also, in the data set with L1210 leukemia [2] (setting [10]), the “60-Day Survivors” value is 0 mice. For the same compound, the “antitumor activity against Sarcoma 180 (in words)” value in the data set with Sarcoma 180 is listed as “only marginal antitumor activity”.
As to `NC1CCCCC1N.O=S(=O)([O-])[O-].[Pt+2]` (centres unmarked) [Sulfato complex, sulfato (1,2-diaminocyclohexane) platinum (II)], the “% ILS” value in the data set on L1210 leukemia [3] (Schedule A, 5.0 mg/kg/injection ip) is on record as 116%; with L1210 leukemia [3] (Schedule B, 3.33 mg/kg/injection ip), 285%; with L1210 leukemia [3] (Schedule C, 0.6 mg/kg/injection ip) it was 239%; in the data set with L1210 leukemia [2] (sulfato complex 4 mg/kg) it was 119%. For the same compound, the “level … with the dichloro complex” value in the data set on L1210 leukemia [3] (setting [11]) was determined as 86%. Besides, the “Dose/Injection range found safe and effective for providing %ILS of at least 25%, Schedule B” value with L1210 leukemia [3] lay within 0.2 to 5 mg/kg. Further, the “Dose/Injection range found safe and effective for providing %ILS of at least 25%, Schedule C” value in the data set with L1210 leukemia [3] lay in the range of 0.1 to 1.2 mg/kg. Moreover, the “Dose/Injection range found safe and effective for providing %ILS of at least 25%, Schedule A” value in the data set on L1210 leukemia [3] is 0.5 to 10 mg/kg. Besides, in the data set with L1210 leukemia [2], the “60-day Survivors” value is reported as 0 mice.
In the case of `CS(=O)(=O)OCCCNCCCOS(C)(=O)=O` [Yoshi-864, 1-propanol, 3,3'-iminodi-,dimethanesulfonate (ester) hydrochloride], the “% ILS” value in the data set on L1210 leukemia [1] is listed as 81%; with L1210 leukemia [2] (dinitrato complex 3 mg/kg) it was 116%; with L1210 leukemia [2] (setting [7]), 117%; in the data set with L1210 leukemia [2] (malonato complex 15 mg/kg) it was 112%; in the data set on L1210 leukemia [2] (sulfato complex 4 mg/kg), 95%. For the same compound, the “60-Day Survivors” value with L1210 leukemia [1], with L1210 leukemia [2] (setting [8]), in the data set on L1210 leukemia [2] (setting [9]) and in the data set on L1210 leukemia [2] (setting [10]) was 0 mice in each case. Also, the “60-day Survivors” value with L1210 leukemia [2] is given as 0 mice.
As for `N.N.[Cl][Pt][Cl]` [cis-dichlorodiammineplatinum (II)], the “therapeutic index (in words)” value in the data set with cancer is reported as “rather low therapeutic index”.
“hydroxymalonato (1,2-diaminocyclohexane) platinum (II) [Hydroxymalonato complex]” had a water solubility of 1500 µg/mL. The “% ILS” value with L1210 leukemia [3] (Schedule A, 75.0 mg/kg/injection ip) is 97%. Further, the “% ILS” value with L1210 leukemia [3] (Schedule B, 37.5 mg/kg/injection ip) is 162%. In addition, in the data set with L1210 leukemia [3] (setting [11]), the “level … with the dichloro complex” value was determined as 111% and the “level of antineoplastic activity greater than that achieved with the malonato complex” value worked out at 19%. The “potency against L1210 leukemia relative to malonato complex (in words)” value in the data set with L1210 leukemia [3] (in comparison with malonato complex) is “even greater potency”. In addition, in the data set on L1210 leukemia [3], the “Dose/Injection range found safe and effective for providing %ILS of at least 25%, Schedule B” value lay in the range of 5 to 37.5 mg/kg; the “Dose/Injection range found safe and effective for providing %ILS of at least 25%, Schedule C” value fell in the range of 1 to 15 mg/kg; the “Dose/Injection range found safe and effective for providing %ILS of at least 25%, Schedule A” value fell in the range of 2 to 150 mg/kg. The “% ILS” value in the data set on L1210 leukemia [2] (setting [7]) was 118%. In addition, in the data set on L1210 leukemia [2] (setting [9]), the “60-Day Survivors” value is 0 mice.

Values taken from patent US4175133A, “1,2-Diaminocyclohexane platinum (II) complexes having antineoplastic activity against L1210 leukemia” (priority 1977, dated 1979).
